Measurements published in ChEMBL document CHEMBL3301546, “MMV Malaria Box yeast growth screening”.

Columns and labels:
Format in all cases: functional
Saccharomyces cerevisiae [1] = experiment: (§1) MMV: Growth assays were conducted using the prototrophic S. cerevisiae strain JHY222. Each MMV compound (0.1 mM) was tested in rich media containing dextrose as a carbon source (Yeast Extract, Peptone, Dextrose; YPD). The growth rate in the presence of each MMV compound was calculated as follows: (i) the first 10 OD readings were averaged and subtracted from all OD readings of the corresponding curve to set the baseline of the growth curve to zero, and (ii) the area under the curve (AUC) was then calculated as the sum of all OD readings. […] A relative growth value was calculated as follows: AUC(DRUG) - AUC(DMSO)/AUC(DMSO); where AUC(DMSO) represents growth measured in a DMSO control well that was on the same microtiter plate of the drug-treated culture.
Saccharomyces cerevisiae [2] = experiment: as §1, with “minimal” for “rich”, “Nitrogen Base,” for “Extract, Peptone,”, “YNBD).” for “YPD).”
Saccharomyces cerevisiae [3] = experiment: as §1, with “minimal” for “rich”, “ethanol and glycerol” for “dextrose”, “as” for “as a”, “sources” for “source”, “Nitrogen Base, Ethanol, Glycerol; YNBEG).” for “Extract, Peptone, Dextrose; YPD).”

SMILES | Relative Growth (Saccharomyces cerevisiae [1]) | Relative Growth (Saccharomyces cerevisiae [2]) | Relative Growth (Saccharomyces cerevisiae [3])
CN1CCN(c2ccc(Nc3c4ccccc4nc4ccccc34)cc2)CC1 | 0.031 | 0.0237 | 0.1233
O=C(Nc1ccc(Cl)c(Cl)c1)Nc1ccc(Cl)c(Cl)c1 | -0.0117 | 0.0087 | 0.0859
COc1ccc(-c2c(C)nn3c(N)c(C#N)cnc23)cc1OC | -0.0311 | -0.0079 | -0.7097
N=c1n(CCN2CCCCC2)c2ccccc2n1CC(=O)c1ccc(Cl)c(Cl)c1 | -0.0413 | 0.1082 | 0.0494
C[n+]1c2ccccc2nc2ccc(NCCO)cc21 | -0.1972 | 0.0053 | -0.0436
Nc1nc(Nc2cccc(F)c2)nc2ccccc12 | -0.0359 | -0.0889 | -0.012
Cc1sc(NC(=O)c2ccco2)c(C(c2cccnc2)N2CCC(Cc3ccccc3)CC2)c1C (stereo not given) | -0.0153 | 0.0125 | 0.0498
COc1cc(C(=O)Nc2nc3c(cc4c5c(cccc53)CC4)s2)cc(OC)c1OC | 0.0021 | -0.1254 | -0.0592
COC(=O)c1ccc(Cl)c2c1C1C=CCC1C(c1cccc3ccccc13)N2 (stereo not given) | -0.0285 | 0.053 | 0.0199
COc1ccc(C2c3ccc4ccccc4c3Oc3ncn(CCCn4ccnc4)c(=N)c32)cc1OC (stereo not given) | 0.015 | -0.111 | 0.1296
CCN(CC)CCNc1ccnc2cc(Cl)ccc12 | -0.0501 | 0.0543 | 0.0209
O=C(CCc1ccccc1)c1ccccc1OCC(O)CN1CCCCC1 (stereo not given) | -0.6663 | 0.0209 | -0.1402
Cc1cc(Nc2ccc3ccccc3c2)n2ncnc2n1 | 0.0302 | 0.0095 | -0.024
Cc1cc(NCCN2CCCCC2)c2ccc3ccccc3c2n1 | 0.101 | 0.1405 | 0.1901
COc1ccc(-n2ccnc2SCC(=O)Nc2cc(C)ccc2C)c(OC)c1 | -0.0469 | -0.0529 | 0.0762
COc1cc(C(=O)Nc2ccc(-c3nc4ccccc4[nH]3)cc2)cc(OC)c1OC | -0.1004 | -0.5664 | -0.2463
O=C(O)C1Cc2c([nH]c3ccccc23)C(c2ccc(Cl)cc2Cl)N1 (stereo not given) | -0.035 | -0.0148 | 0.1085
Cc1ccc(N2C(=O)C3C(C2=O)C2(c4ccccc4)C(=O)C3(c3ccccc3)C(c3ccccc3)=C2c2ccccc2)cc1 (stereo not given) | 0.0561 | 0.0552 | 0.0311
Cc1ccc(C(=O)c2oc3ccc4c(C)cc(=O)oc4c3c2C)cc1 | -0.0457 | -0.0077 | -0.1519
CCOC(=O)c1cn(CC)c2cc(N(C)CCc3ccc(OC)c(OC)c3)c(F)cc2c1=O | -0.6378 | -0.8912 | -0.9835
O=C(CCl)NCCOc1ccc(Cl)cc1Cl | -0.0085 | 0.0391 | -0.0052
O=[N+]([O-])c1ccc(C=NNc2nc3ccccc3[nH]2)cc1 | -0.6981 | -1.0011 | -1.0063
COc1ccc(CNC(=O)c2cc3c(=O)n4ccccc4nc3n(CCc3ccccc3)c2=N)cc1 | -0.0554 | -0.2162 | -0.0439
CCOC(=O)c1c(NC(=O)c2ccccc2)sc2c(O)c(CN(CC)CC)ccc12 | -0.0008 | 0.0832 | 0.1716
O=C(NC1CCN(Cc2ccccc2)CC1)c1cc(C(=O)NC2CCN(Cc3ccccc3)CC2)cc(C(=O)NC2CCN(Cc3ccccc3)CC2)c1 | -0.0223 | 0.0347 | -0.1727
CC(=O)c1sc(NC(=O)Nc2ccc(C)cc2C)nc1C | -0.0731 | -0.0182 | 0.0857
Cn1c(C(=O)c2cccc3ccccc23)nc2ccccc21 | -0.0135 | 0.0393 | 0.1204
CCN(CC)CCNc1ccnc2cc3ccccc3cc12.O=P(O)(O)O | 0.0094 | -0.1052 | -0.0873

SMILES | Relative Growth (Saccharomyces cerevisiae [1]) | Relative Growth (Saccharomyces cerevisiae [2]) | Relative Growth (Saccharomyces cerevisiae [3])
CCOc1ccc2nc(C)cc(Nc3ccc(N(C)C)cc3)c2c1.Cl | -0.2818 | -0.1579 | -0.2064
Oc1ccc2ccccc2c1CNc1nc2ccccc2[nH]1 | -0.0053 | -0.1179 | -0.0356
O=C(Nc1ccc(-c2nc3ccccc3[nH]2)cc1)c1ccc(Cl)c(Cl)c1 | 0.0053 | 0.027 | 0.0462
Cc1cccc(Nc2nc(N)c3ccccc3n2)c1.Cl | -0.0941 | 0.1313 | 0.3952
CCn1c(CN2CCN(Cc3ccccc3)CC2)nc2cc(NC(=O)c3cccs3)ccc21 | -0.0008 | -0.4968 | -0.226
O=C1c2ccc3c4c(ccc(c24)C(=O)N1CCCCO)C(=O)N(CCCCO)C3=O | -0.136 | -0.7093 | -1.0287
OCCNc1nc(Nc2ccc(Cl)c(Cl)c2)nc2ccccc12 | 0.0231 | -0.1441 | 0.0602
Cc1cc(N(C)C)nc(Nc2ccc(NC(=O)Nc3ccccc3)cc2)n1 | -0.0299 | -0.0678 | -0.3445
c1ccc2cc3c(Nc4ccc(N5CCOCC5)cc4)ccnc3cc2c1 | 0.0179 | 0.0841 | 0.2097
COc1ccccc1C(=O)ON=C(N)Cc1cccc2ccccc12 | 0.0139 | 0.0083 | 0.0174
COc1cc(OC)c(N(C)C(=O)c2cc3c(s2)-c2ccccc2S(=O)(=O)C3)cc1Cl | -0.2124 | -0.1342 | -0.2428
COc1cc(C(=O)ON=C(N)Cc2cccc3ccccc23)cc(OC)c1OC | -0.2539 | 0.2835 | 0.1784
CN1C=C(c2ccc3ccccc3n2)C(c2c[nH]c3ccccc23)c2ccccc21 (stereo not given) | -0.6873 | 0.0287 | -0.048
Oc1c(C(Nc2ccccn2)c2cccc(Oc3ccccc3)c2)ccc2cccnc12 (stereo not given) | -0.9969 | 0.0038 | -0.1371
CCOC(=O)c1cn(CC)c2cc(N3CCCCC3)c(F)cc2c1=O | -0.0482 | -0.2997 | -0.2149
CNCCCNc1ccnc2cc(Cl)ccc12 | 0.1016 | 0.075 | 0.188
Cc1cc(C=C2SC(=Nc3ccccc3)N(C3CCCC3)C2=O)c(C)n1-c1ccc(Cl)cc1 | 0.0207 | -0.1823 | -0.2078
CCc1ccc(Nc2cc(C)c3ccc(O)cc3n2)cc1.Cl | -0.0071 | 0.1514 | 0.0748
CSc1ccccc1C(=O)Nc1nc(-c2ccccn2)cs1 | -0.0643 | -0.0928 | -0.2282
Br.CCn1c2c(c(=N)c3c1CCC3)CCCC2 | -0.135 | -0.0127 | -0.0042
Cc1ccc2c(C)nc(Nc3nc(C)cc(-c4ccccc4)n3)nc2c1 | -0.9982 | -0.1458 | -0.009
Cc1ccc(N2C3c4ccccc4N(S(=O)(=O)c4ccc(C)cc4)C2c2ccccc2N3S(=O)(=O)c2ccc(C)cc2)cc1 | -0.0583 | -0.0282 | -0.3051
Br.Cc1ccc(C)c(-c2csc(Nc3ccc(C)c(C)c3)n2)c1 | -0.11 | -0.0757 | -0.3216
CCCc1c(CC)c(=N)c2ccccc2n1C | -0.0123 | -0.0316 | -0.1464
CN(C)c1ccc(N=Cc2ccc(N3CCOCC3)cc2)cc1 | -0.0781 | 0.0616 | 0.068
CCOC(=O)c1cnc2ccc(OC)cc2c1NCc1ccccc1 | -0.0244 | -0.0203 | -0.1303
CCOC(=O)c1cnc2c(C)cc(C)cc2c1Nc1ccc(OC)c(OC)c1 | -0.1039 | 0.0948 | -0.222
